The values that follow come from patent US20230114241A1, “METHODS OF TREATING EPILEPSY USING THE SAME” (Trevena, Inc., priority 2019, published 2023).

Data set [1] relates to peripheral blood lymphocytes. Kind of data set: Lymphopenia: peripheral blood lymphocyte counts, acute and chronic s.c. dosing. It is filed as in vivo. The conditions noted are these: c57bl/6 mice. As to the method:
Compounds were tested for changes in peripheral blood lymphocytes in C57bl/6 mice. In acute studies, animals (n=5/group) were dosed subcutaneously with test compound at a dose of 3 mg/kg. Animals were sacrificed at specific time points and […] of whole blood was collected in EDTA (K2) Eppendorf tubes. Blood was stored on ice and shipped immediately overnight delivery to Charles River Laboratories for analysis. CRL ran samples through their WBC/differential panel on an Advia 120 instrument. We received peripheral lymphocyte counts (10^3 cells/μl) for each blood sample. Treatment group means were compared to a vehicle treatment group for statistical significance. In chronic studies, animals (n=6-8/group) were dosed subcutaneously for three to seven days with test compound at doses that were at least 5-fold higher than the efficacious dose in pharmacology/behavioral assays. On the last day, animals were sacrificed 45 minutes to 6 hrs after the final dose. Whole blood was collected and analyzed as described for acute studies. […]

The target of data set [2] is T1, human sphingosine-1-phosphate receptor 1 (S1P1) (Homo sapiens, UniProt P21453). As to the kind of experiment: Inhibition of cAMP production (HTRF cAMP HiRange), S1P1 CHO-K1 cells. It is filed as cell-based. Particulars: for Emax: CHO-K1, efficacy normalized to maximum efficacy of fingolimod, read-out: hS1P1 CAMP SPAN; for EC50: read-out: hS1P1 CAMP pEC50 (converted). The essentials:
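Intracellular cAMP changes read by TR-FRET (HTRF HiRange, 1 h room temperature) after 30 min compound exposure at 37 °C. Cells: overnight-plated CHO-K1 stably expressing tagged human S1P1 with EA-β-arrestin2. Responses normalized to fingolimod.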
A general note: cAMP levels reflect the balance of adenylyl cyclase and phosphodiesterase activity.
Target sequence in this assay (P21453 whole entry): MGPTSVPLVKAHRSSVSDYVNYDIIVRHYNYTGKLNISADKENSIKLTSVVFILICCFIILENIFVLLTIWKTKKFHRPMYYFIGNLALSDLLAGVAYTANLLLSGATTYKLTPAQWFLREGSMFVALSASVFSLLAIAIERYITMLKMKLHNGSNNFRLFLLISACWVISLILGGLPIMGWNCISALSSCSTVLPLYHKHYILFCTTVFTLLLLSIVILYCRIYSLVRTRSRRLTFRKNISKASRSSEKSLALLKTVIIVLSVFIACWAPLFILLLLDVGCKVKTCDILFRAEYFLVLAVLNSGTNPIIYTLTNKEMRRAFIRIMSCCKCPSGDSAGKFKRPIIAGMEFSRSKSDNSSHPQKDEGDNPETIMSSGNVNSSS

Data set [3] deals with T1, human sphingosine-1-phosphate receptor 1 (S1P1). Kind of data set: β-Arrestin2 recruitment assay (PathHunter), S1P1 CHO-K1 cells. It is filed as cell-based. The conditions noted are these: for Emax: efficacy normalized to maximum efficacy of fingolimod, read-out: hS1P1 B-arrestin2 SPAN; for EC50: β-arrestin2 recruitment, read-out: hS1P1 B-arrestin2 pEC50 (converted). The essentials: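 Agonist-driven β-arrestin2 recruitment measured by β-galactosidase complementation after 60 min compound exposure at 37 °C and 1 h detection at room temperature. Cells: stable CHO-K1 line expressing tagged human S1P1 with EA-β-arrestin2, plated the night before. Data expressed relative to fingolimod.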
Target sequence in this assay (P21453 whole entry): as above
Target sequence in this assay (P32121 whole entry partner): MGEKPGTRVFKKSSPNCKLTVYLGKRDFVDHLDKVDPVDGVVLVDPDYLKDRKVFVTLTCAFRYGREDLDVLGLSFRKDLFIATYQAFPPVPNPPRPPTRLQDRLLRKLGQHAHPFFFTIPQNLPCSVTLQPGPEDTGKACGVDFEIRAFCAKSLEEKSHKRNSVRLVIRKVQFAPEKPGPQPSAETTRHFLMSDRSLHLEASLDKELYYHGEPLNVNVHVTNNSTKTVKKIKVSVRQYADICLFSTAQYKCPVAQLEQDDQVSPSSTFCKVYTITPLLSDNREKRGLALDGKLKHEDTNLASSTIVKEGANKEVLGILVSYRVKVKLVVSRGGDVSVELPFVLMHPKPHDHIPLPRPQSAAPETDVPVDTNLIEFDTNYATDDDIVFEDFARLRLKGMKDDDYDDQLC
On the technique in general: Activated receptors often draw arrestin, which recruitment assays turn into a signal.

Setting [4] is: inhibition of cAMP production, S1P1.
Setting [5] is: inhibition of cAMP production, potency.
[6] abbreviates: CHO-K1, β-arrestin2 recruitment.

Each structure is given as a SMILES string. Bounds are passed on as bounds.

With `CN1C(=O)CCc2cc(-c3nc(-c4cccnc4)no3)ccc21` [Compound 384, 1-methyl-6-[3-(pyridin-3-yl)-1,2,4-oxadiazol-5-yl]-1,2,3,4-tetrahydroquinolin-2-one], the “Lymphopenia effect (peripheral blood lymphocytes)” value in data set [1] (3 mg/kg sc, 45 min and 2 hr) is “no change: 3 mg/kg; 45 min and 2 hr”. Also, the Emax in data set [2] was greater than 75%; in data set [3] (CHO-K1), less than 75%. The EC50 in data set [2] (setting [4]) is greater than 316 nM; in data set [3] (S1P1) it was greater than 10000 nM.

Consider `CC(C)Nc1ccc(-c2nnc(-c3ccc4[nH]cnc4c3)o2)cc1C#N` [Compound 356, 5-[5-(1H-1,3-benzodiazol-5-yl)-1,3,4-oxadiazol-2-yl]-2-[(propan-2-yl)amino]benzonitrile], for which the “Lymphopenia effect (peripheral blood lymphocytes)” value in data set [1] (6 mg/kg sc, 7 days) is on record as “no change: 6 mg/kg, 7 days”. In addition, the EC50 in data set [2] (setting [5]) was less than 316 nM.

Regarding `CC(C)n1nnc2cc(-c3nc(-c4ccncc4C(F)(F)F)no3)ccc21` [Compound 455, 1-(propan-2-yl)-5-{3-[3-(trifluoromethyl)pyridin-4-yl]-1,2,4-oxadiazol-5-yl}-1H-1,2,3-benzotriazole], in data set [1] (6 mg/kg sc, 7 days), the “Lymphopenia effect (peripheral blood lymphocytes)” value is “no change: 6 mg/kg, 7 days”. Besides, in data set [2] (setting [4]), the EC50 was less than 316 nM.

As to `COc1cccc(-c2noc(-c3ccc4c(c3)nnn4C(C)C)n2)n1` [Compound 19, 5-[3-(6-methoxypyridin-2-yl)-1,2,4-oxadiazol-5-yl]-1-(propan-2-yl)-1H-1,2,3-benzotriazole], in data set [1] (6 mg/kg sc, 7 days), the “Lymphopenia effect (peripheral blood lymphocytes)” value was “no change: 6 mg/kg, 7 days”. The Emax in data set [2] (inhibition of cAMP production) and in data set [3] (setting [6]) was less than 75% in each case. The EC50 in data set [2] (setting [5]) was greater than 316 nM; in data set [3] (potency) it was less than 10000 nM.

`CC(C)Oc1ccc(-c2nc(-c3ccc4c(c3)nnn4C(C)C)no2)cc1C#N` [Compound 22, 2-isopropoxy-5-(3-(1-isopropyl-1H-benzo[d] [1,2,3]triazol-5-yl)-1,2,4-oxadiazol-5-yl)benzonitrile]: the “Lymphopenia effect (peripheral blood lymphocytes)” value in data set [1] (3 mg/kg sc, 7 days) is reported as “no change: 3 mg/kg, 7 days”.

Take `CC(F)(F)CNc1ccc(-c2nnc(-c3ccc4[nH]ncc4c3)o2)cc1C#N` [Compound 355, 2-[(2,2-difluoro-propyl)amino]-5-[5-(1H-indazol-5-yl)-1,3,4-oxadiazol-2-yl]benzonitrile]: in data set [1] (6 mg/kg sc, 7 days), the “Lymphopenia effect (peripheral blood lymphocytes)” value was “no change: 6 mg/kg, 7 days”. Besides, the Emax in data set [2] (inhibition of cAMP production) and in data set [3] (setting [6]) was greater than 75% each time. Moreover, in data set [2] (setting [5]), the EC50 was less than 316 nM.

In the case of `CCC1(CC)CC(=O)c2cc(-c3nc(-c4cccnc4)no3)ccc2O1` [Compound 103, 2,2-diethyl-6-[3-(pyridin-3-yl)-1,2,4-oxadiazol-5-yl]-3,4-dihydro-2H-1-benzopyran-4-one], the “Lymphopenia effect (peripheral blood lymphocytes)” value in data set [1] (6 mg/kg sc, 7 days) is “no change: 6 mg/kg, 7 days”. Also, the EC50 in data set [2] (setting [5]) is less than 316 nM.

With `Cc1ccccc1-c1noc(-c2ccc3c(c2)nnn3CC(C)C)n1` [Compound 96, 5-[3-(2-methylphenyl)-1,2,4-oxadiazol-5-yl]-1-(2-methylpropyl)-1H-1,2,3-benzotriazole], in data set [1] (6 mg/kg sc, 7 days), the “Lymphopenia effect (peripheral blood lymphocytes)” value is given as “no change: 6 mg/kg, 7 days”. Besides, the EC50 in data set [2] (setting [5]) is less than 316 nM.

In the case of `CCC1(CC)CC(=O)c2cc(-c3nc(-c4cccnc4OC)no3)ccc2O1` [Compound 147, 2,2-diethyl-6-(3-(2-methoxypyridin-3-yl)-1,2,4-oxadiazol-5-yl)chroman-4-one], the “Lymphopenia effect (peripheral blood lymphocytes)” value in data set [1] (6 mg/kg sc, 7 days) was “no change: 6 mg/kg, 7 days”. Besides, in data set [2] (setting [5]), the EC50 was less than 316 nM.

As for `Cc1cnccc1-c1nc(-c2ccc3c(ccn3C(C)C)c2)no1` [Compound 142, 3-(1-isopropyl-1H-indol-5-yl)-5-(3-methylpyridin-4-yl)-1,2,4-oxadiazole], the “Lymphopenia effect (peripheral blood lymphocytes)” value in data set [1] (6 mg/kg sc, 7 days) is “no change: 6 mg/kg, 7 days”. In data set [2] (setting [5]), the EC50 is less than 316 nM.

Turning to `Cc1ccsc1-c1noc(-c2ccc3c(c2)nnn3C(C)C)n1` [Compound 169, 5-[3-(3-methyl-thiophen-2-yl)-1,2,4-oxadiazol-5-yl]-1-(propan-2-yl)-1H-1,2,3-benzotriazole], the “Lymphopenia effect (peripheral blood lymphocytes)” value in data set [1] (6 mg/kg sc, 7 days) is “no change: 6 mg/kg, 7 days”. Besides, the Emax in data set [2] (inhibition of cAMP production) and in data set [3] (setting [6]) was greater than 75% throughout. In addition, the EC50 is less than 316 nM in data set [2] (setting [5]) and less than 10000 nM in data set [3] (potency).

Take `Cc1ccccc1-c1noc(-c2ccc3c(c2)nnn3C(C)C)n1` [Compound 293, 5-[3-(2-methylphenyl)-1,2,4-oxadiazol-5-yl]-1-(propan-2-yl)-1H-1,2,3-benzotriazole]: the “Lymphopenia effect (peripheral blood lymphocytes)” value in data set [1] (6 mg/kg sc, 7 days) is on record as “no change: 6 mg/kg, 7 days”. In addition, the EC50 in data set [2] (setting [5]) is less than 316 nM.

Take `CCC1(CC)CC(=O)c2cc(-c3nc(-c4ccc(NC(C)=O)cc4OC)no3)ccc2O1` [Compound 531, N-{4-[5-(2,2-diethyl-4-oxo-3,4-dihydro-2H-1-benzopyran-6-yl)-1,2,4-oxadiazol-3-yl]-3-methoxyphenyl} acetamide]: in data set [1] (6 mg/kg sc, 7 days), the “Lymphopenia effect (peripheral blood lymphocytes)” value is given as “no change: 6 mg/kg, 7 days”. For the same molecule, the Emax in data set [2] and in data set [3] (CHO-K1) was greater than 75% in each case. For the same molecule, the EC50 in data set [2] (setting [4]) is less than 316 nM; in data set [3] (S1P1), less than 10000 nM.

With `CC(C)Nc1ccc(-c2ncc(-c3cccnc3)cn2)cc1C#N` [Compound 737, 2-(isopropylamino)-5-(5-(pyridin-3-yl)pyrimidin-2-yl)benzonitrile], the “Lymphopenia effect (change in peripheral blood lymphocytes)” value in data set [1] (6 mg/kg sc, 7 days, vs vehicle) is listed as −40% not stat sig: 6 mg/kg, 7 days.

For `Cc1cnc(-c2nc(-c3ccc4c(c3)nnn4C(C)C)no2)cn1` [Compound 234, 3-(1-isopropyl-1H-benzo[d][1,2,3]triazol-5-yl)-5-(5-methyl-pyrazin-2-yl)-1,2,4-oxadiazole], in data set [1] (6 mg/kg sc, 7 days), the “Lymphopenia effect (peripheral blood lymphocytes)” value is on record as “no change: 6 mg/kg, 7 days”. Also, the Emax in data set [2] (inhibition of cAMP production) and in data set [3] (setting [6]) was less than 75% throughout. Moreover, the EC50 in data set [2] (setting [5]) was greater than 316 nM; in data set [3] (potency) it was greater than 10000 nM.

Regarding `COc1ccc(-c2noc(-c3ccc4c(c3)nnn4C(C)C)n2)c(C)c1` [Compound 55, 5-(1-isopropyl-1H-benzo[d][1,2,3]triazol-5-yl)-3-(4-methoxy-2-methylphenyl)-1,2,4-oxadiazole], in data set [1] (6 mg/kg sc, 7 days), the “Lymphopenia effect (peripheral blood lymphocytes)” value is reported as “no change: 6 mg/kg, 7 days”. Besides, the Emax in data set [2] (inhibition of cAMP production) and in data set [3] (setting [6]) was greater than 75% in each case. In addition, the EC50 in data set [2] (setting [5]) is less than 316 nM; in data set [3] (potency), less than 10000 nM.

For the molecule `Cc1cnccc1-c1nc(-c2ccc3c(c2)nnn3C(C)C)no1` [Compound 8, 3-(1-isopropyl-1H-benzo[d][1,2,3]triazol-5-yl)-5-(3-methylpyridin-4-yl)-1,2,4-oxadiazole], the “Lymphopenia effect (peripheral blood lymphocytes)” value in data set [1] (6 mg/kg sc, 7 days) is “no change: 6 mg/kg, 7 days”. Besides, the EC50 in data set [2] (setting [5]) was greater than 316 nM.

`Cc1ccccc1-c1noc(-c2ccc3c(c2)nnn3C(C)(C)C)n1` [Compound 59, 1-tert-butyl-5-[3-(2-methylphenyl)-1,2,4-oxadiazol-5-yl]-1H-1,2,3-benzotriazole]: in data set [1] (6 mg/kg sc, 7 days), the “Lymphopenia effect (peripheral blood lymphocytes)” value is reported as “no change: 6 mg/kg, 7 days”. Moreover, the Emax in data set [2] (inhibition of cAMP production) and in data set [3] (setting [6]) was greater than 75% in each case. Besides, the figures for the EC50 in data set [2] (setting [5]) and in data set [3] (potency) were less than 316 nM and less than 10000 nM, respectively.

For `CC(F)(F)CNc1ccc(-c2nnc(-c3ccc4[nH]cnc4c3)o2)cc1C#N` [Compound 520, 5-[5-(1H-1,3-benzodiazol-5-yl)-1,3,4-oxadiazol-2-yl]-2-[(2,2-difluoro-propyl)amino]benzonitrile], the “Lymphopenia effect (peripheral blood lymphocytes)” value in data set [1] (6 mg/kg sc, 7 days) was “no change: 6 mg/kg, 7 days”. The EC50 in data set [2] (setting [4]) is less than 316 nM.
